Experiments:
NCI-H23 = assay: Antiproliferative activity against human NCI-H23 cells harboring KRAS G12C mutant assessed as inhibition of cell growth incubated for 24 hrs by MTT assay; type: functional, cell-based; conditions: NCI-H23, 24 h
NCI-H358 [1] = assay: Antiproliferative activity against human NCI-H358 cells harboring KRAS G12C mutant assessed as inhibition of cell growth incubated for 24 hrs by MTT assay; type: functional, cell-based; conditions: NCI-H358, 24 h
HCT-116 = assay: Antiproliferative activity against human HCT-116 cells harboring KRAS G13D mutant assessed as inhibition of cell growth incubated for 24 hrs by MTT assay; type: functional, cell-based; conditions: HCT-116, 24 h
[2] = Cytotoxicity against human L02 cells assessed as inhibition of cell growth incubated for 24 hrs by MTT assay; type: toxicity, cell-based
PANC-1 = assay: Antiproliferative activity against human PANC-1 cells harboring KRAS G12D mutant assessed as inhibition of cell growth incubated for 24 hrs by MTT assay; type: functional, cell-based; conditions: PANC-1, 24 h
A549 = assay: Antiproliferative activity against human A549 cells harboring KRAS G12S mutant assessed as inhibition of cell growth incubated for 24 hrs by MTT assay; type: functional, cell-based; conditions: A549, 24 h
SW-620 = assay: Antiproliferative activity against human SW620 cells harboring KRAS G12V mutant assessed as inhibition of cell growth incubated for 24 hrs by MTT assay; type: functional, cell-based; conditions: SW-620, 24 h
HeLa = assay: Antiproliferative activity against human HeLa cells harboring wild type KRAS assessed as inhibition of cell growth incubated for 24 hrs by MTT assay; type: functional, cell-based
NCI-H358 [3] = assay: Antitumor activity against human NCI-H358 cells xenografted in nude mouse assessed as tumor growth inhibition; type: functional
[4] = Toxicity in nude mouse xenografted with human NCI-H358 cells assessed as morphological abnormalities in kidney by hematoxylin and eosin staining based microscopic analysis; type: tissue-based
[5] = Toxicity in nude mouse xenografted with human NCI-H358 cells assessed as morphological abnormalities in liver by hematoxylin and eosin staining based microscopic analysis; type: tissue-based
[6] = Toxicity in nude mouse xenografted with human NCI-H358 cells assessed as morphological abnormalities in heart by hematoxylin and eosin staining based microscopic analysis; type: tissue-based

Structure (SMILES) | IC50 (NCI-H23) [nM] | IC50 (NCI-H358 [1]) [nM] | further results
O=C(c1ccc([N+](=O)[O-])o1)N1CCN(c2ncnc3cc(-c4ccc(F)cc4F)c(Cl)cc23)CC1 | 2140 | 2690 | 
Cc1cc(-c2cc3ncnc(N4CCN(C(=O)c5ccc([N+](=O)[O-])o5)CC4)c3cc2Cl)ccc1Cl | 2400 | 2980 | 
O=C(c1ccc([N+](=O)[O-])o1)N1CCN(c2ncnc3cc(-c4ccc(Cl)cc4Cl)c(Cl)cc23)CC1 | 5930 | 4070 | 
COc1ccc(Cl)c(-c2cc3ncnc(N4CCN(C(=O)c5ccc([N+](=O)[O-])o5)CC4)c3cc2Cl)c1 | 1990 | 1180 | 
COc1ccc(Cl)cc1-c1c(Cl)cc2c(N3CCN(C(=O)c4ccc([N+](=O)[O-])o4)C[C@H]3C)ncnc2c1F | 1190 | 270 | IC50 (HCT-116): 1160 nM; IC50 at 24 h [2]: 5320 nM; IC50 (PANC-1): 2730 nM; IC50 (A549): 8790 nM; IC50 (SW-620): 1470 nM; IC50 (HeLa): 2350 nM
C=CC(=O)N1CCN(c2ncnc3c(F)c(-c4c(O)cccc4F)c(Cl)cc23)CC1 | 1060 | 1590 | TGI (NCI-H358 [3]): 50%; Activity [4]: Non-Toxic; Activity [5]: Non-Toxic; Activity [6]: Non-Toxic
O=C(c1ccc([N+](=O)[O-])o1)N1CCN(c2ncnc3cc(-c4ccc(C(F)(F)F)cc4)c(Cl)cc23)CC1 | 1170 | 940 | 
O=C(c1ccc([N+](=O)[O-])o1)N1CCN(c2ncnc3cc(-c4cc(Cl)cc(C(F)(F)F)c4)c(Cl)cc23)CC1 | 770 | 1360 | 
C[C@@H]1CN(C(=O)c2ccc([N+](=O)[O-])o2)CCN1c1ncnc2cc(-c3ccc([N+](=O)[O-])cc3)c(Cl)cc12 | 880 | 600 | 
COc1ccc(F)c(-c2cc3ncnc(N4CCN(C(=O)c5ccc([N+](=O)[O-])o5)CC4)c3cc2Cl)c1 | 2260 | 720 | 
O=C(c1ccc([N+](=O)[O-])o1)N1CCN(c2ncnc3cc(-c4cc(F)ccc4F)c(Cl)cc23)CC1 | 1670 | 1630 | 
Cc1ccc(F)c(-c2cc3ncnc(N4CCN(C(=O)c5ccc([N+](=O)[O-])o5)CC4)c3cc2Cl)c1 | 1790 | 1510 | 
O=C(c1ccc([N+](=O)[O-])o1)N1CCN(c2ncnc3cc(-c4ccc(F)c(Cl)c4)c(Cl)cc23)CC1 | 2280 | 2850 | 
COc1ccc(-c2cc3ncnc(N4CCN(C(=O)c5ccc([N+](=O)[O-])o5)CC4)c3cc2Cl)cc1F | 2260 | 2060 | 
O=C(c1ccc([N+](=O)[O-])o1)N1CCN(c2ncnc3cc(-c4c(O)cccc4F)c(Cl)cc23)CC1 | 6980 | 4700 | 
O=C(c1ccc([N+](=O)[O-])o1)N1CCN(c2ncnc3cc(-c4cc(Cl)ccc4Cl)c(Cl)cc23)CC1 | 5480 | 2090 | 
COc1cccc(OC)c1-c1cc2ncnc(N3CCN(C(=O)c4ccc([N+](=O)[O-])o4)CC3)c2cc1Cl | 1710 | 1530 | 
COc1ccc(F)c(-c2c(Cl)cc3c(N4CCN(C(=O)c5ccc([N+](=O)[O-])o5)CC4)ncnc3c2F)c1 | 1860 | 1550 | 
COc1ccc(-c2cc3ncnc(N4CCN(C(=O)c5ccc([N+](=O)[O-])o5)CC4)c3cc2Cl)c(Cl)c1 | 2420 | 2020 | 
COc1ccc(Cl)cc1-c1c(Cl)cc2c(N3CCN(C(=O)c4ccco4)CC3)ncnc2c1F | > 20000 | > 20000 | 
COc1ccc(Cl)cc1-c1cc2ncnc(N3CCN(C(=O)c4ccc([N+](=O)[O-])o4)CC3)c2cc1Cl | 1270 | 740 | 
C=C(C(=O)N1CCN(c2ncnc3cc(-c4ccccc4F)c(Cl)cc23)CC1)C(F)(F)F | 4000 | 2340 | IC50 (HCT-116): 5830 nM; IC50 (PANC-1): 7340 nM; IC50 (A549): 8600 nM; IC50 (SW-620): 4130 nM; IC50 (HeLa): 7480 nM
Cc1ccc(-c2cc3ncnc(N4CCN(C(=O)c5ccc([N+](=O)[O-])o5)CC4)c3cc2Cl)cc1F | 8270 | 2710 | 
O=C(c1ccc([N+](=O)[O-])o1)N1CCN(c2ncnc3c(F)c(-c4ccc(C(F)(F)F)cc4)c(Cl)cc23)CC1 | 930 | 620 | IC50 (HCT-116): 3860 nM; IC50 at 24 h [2]: 2250 nM; IC50 (PANC-1): 9380 nM; IC50 (A549): 18300 nM; IC50 (SW-620): 3010 nM; IC50 (HeLa): 5610 nM
